These results are taken from patent publication US9340520B2, “Hepatitis C virus inhibitors” (Bristol-Myers Squibb Company, priority 2011, dated 2016).

Usually AUC stands for concentration integrated over time. The term bioavailability denotes dose-corrected exposure relative to a reference, in per cent. The term CC50 denotes the concentration at which the toxic effect on the cells reaches its halfway point. A high value points to better tolerance by the cells.

Data set [1] is described as follows: IV and PO single dose pharmacokinetic studies in rat. It counts as in vivo. The following applies: male Sprague-Dawley rats, plasma; for AUC: oral gavage 5 mg/kg, 24 h, read-out: 24 h rat PK (Auc); for bioavailability: oral gavage 5 mg/kg vs IV infusion 2 mg/kg, read-out: 24 h rat PK (oral bioavailability). Here is the method:
The pharmacokinetics of Examples 1 to 6 and Compound-A (WO2008/021927) were characterized in male Sprague-Dawley rats (260-310 g) (see Table 2). In these studies, two groups of animals (N=3 per group) received compound either as an intravenous (IV) infusion (2 mg/kg over 10 minutes) via the jugular vein or by oral gavage (5 mg/kg) in a vehicle of 100% PEG 400 or 90:5:5 PEG 400:ethanol:TPGS, respectively. The rats in the oral dosing group were fasted overnight. Serial blood samples were obtained at 0.17 (IV only), 0.25, 0.5, 0.75, 1, 2, 4, 6, 8, and 24 h post dose. Blood samples (˜0.3 mL) were collected from the jugular vein into K3EDTA-containing tubes and then centrifuged at 4° C. (1500-2000×g) to obtain plasma. Plasma samples were stored at −20° C. until analysis by LC/MS/MS.
A bioanalytical method utilizing liquid chromatography separation followed by tandem mass spectrometry detection (LC/MS/MS) was developed for the compound analysis in rat plasma. Detection was performed using selected reaction monitoring. Ions representing the precursor (M+H)^+ species were selected in quadrupole 1 and collisionally dissociated with N2 to generate specific product ions, which were subsequently monitored by quadrupole 3. Standard curves were prepared in male rat plasma and processed in the same manner as test samples to generate quantitative data.
Pharmacokinetic parameter values were calculated using noncompartmental methods by Kinetica. Values below the lower limit of quantification (LLOQ) were not used in calculations. Area under the curve (AUC) was calculated using the linear trapezoidal rule.

The subject of data set [2] is HCV genotype 1b wild type. Description: HCV replicon assay, genotype 1b wild type. It counts as cell-based. The conditions noted are these: Hepatitis C virus, HCV replicon cells, read-out: EC50 G 1b wild type. Here is the method:
(§1) An HCV Replicon assay was utilized in the present disclosure, and was prepared, conducted and validated as described in commonly owned PCT/US2006/022197 and in O'Boyle et. al. Antimicrob Agents Chemother. 2005 April; 49(4):1346-53. Recommended assay methods incorporating luciferase reporters have also been used as described from commercial sources (Apath.com).
(§2) HCV-neo replicon cells and replicon cells containing resistance substitutions in the NS5A region were used to test the currently described family of compounds. The compounds were determined to have differing degrees of reduced inhibitory activity on cells containing mutations vs. the corresponding inhibitory potency against wild-type cells. Thus, the compounds of the present disclosure can be effective in inhibiting the function of the HCV NS5A protein and are understood to be as effective in combinations as previously described in application PCT/US2006/022197 and commonly owned WO/04014852. It should be understood that the compounds of the present disclosure can inhibit multiple genotypes of HCV.

Data set [3] relates to HCV genotype 1b LV/YH double resistant mutant. Description: HCV replicon assay, genotype 1b LV/YH double resistant mutant. Type of data set: cell-based. The following applies: Hepatitis C virus, read-out: EC50 G 1b LV/YH. The method, then: as §1, §2
The subject of another data set is HCV genotype 1a. In words: HCV replicon assay, genotype 1a. Type of data set: cell-based. The following applies: Hepatitis C virus; HCV replicon cells, genotype 1a wild type; read-out: EC50 G 1a wild type. Here is the method: as §1, §2
Data set [4] relates to genotype-1a YH single resistant mutant. Description: HCV replicon assay, genotype-1a YH single resistant mutant. Type of data set: cell-based. The following applies: Hepatitis C virus, read-out: EC50 G 1a YH. Here is the method: as §1, §2
On the technique in general: A replicon is a self-replicating genome or part of one, used to study replication in cells.

A short description of data set [5]: Cytotoxicity (CC50) in G 1a replicon cells. It counts as cell-based. The following applies: HCV G 1a replicon cells. The method, then: as §1

SMILES strings stand for the structures.

As for `COC(=O)N[C@H](C(=O)N1CCC[C@H]1c1nc(-c2ccc(-c3ccc(-c4c[nH]c([C@@H]5CCCN5C(=O)[C@@H](NC(=O)OC)C5CCOCC5)n4)cc3)cc2)c[nH]1)C1CCOCC1` [Compound-A, reference compound], in data set [1], the AUC was determined as 0.103 µM·h. The bioavailability in data set [1] worked out at 1.3%. The EC50 in data set [2] turned out to be 0.119 nM; in data set [3] it was 20 nM; in the data set on HCV genotype 1a, 0.0511 nM; in data set [4], 13 nM. In data set [5], the CC50 was found to be 63900 nM.

Consider `COC(=O)N[C@H](C(=O)N1[C@@H](C)CC[C@H]1c1nc(-c2ccc(-c3ccc(-c4c[nH]c([C@@H]5CC[C@H](C)N5C(=O)[C@@H](NC(=O)OC)[C@H]5C[C@@H](C)O[C@@H](C)C5)n4)cc3)cc2)c[nH]1)[C@@H]1C[C@@H](C)O[C@@H](C)C1` [Example-1], for which, in data set [1], the AUC was found to be 1.6 µM·h. For the same molecule, the bioavailability in data set [1] was determined as 15%. The EC50 in data set [2] stood at 0.00396 nM; in data set [3] it was 3.19 nM; with HCV genotype 1a, 0.00548 nM; in data set [4] it was 0.977 nM. This molecule also showed a CC50 in data set [5] of 8460 nM.

For `COC(=O)N[C@H](C(=O)N1[C@@H](C)CC[C@H]1c1nc(-c2ccc(-c3ccc(-c4c[nH]c([C@@H]5CC[C@H](C)N5C(=O)[C@@H](NC(=O)OC)C5C[C@@H](C)O[C@H](C)C5)n4)cc3)cc2)c[nH]1)C1C[C@@H](C)O[C@H](C)C1` (stereo partly drawn) [Example-2, Dimethyl(4,4′-biphenyldiylbis(1H-imidazole-4,2-diyl((2S,5S)-5-methyl-2,1-pyrrolidinediyl)((1S)-1-((2R,6R)-2,6-dimethyltetrahydro-2H-pyran-4-yl)-2-oxo-2,1-ethanediyl)))biscarbamate], the AUC in data set [1] was found to be 2.22 µM·h. Besides, the bioavailability in data set [1] stood at 12%. Besides, the EC50 in data set [2] was 0.00803 nM; in data set [3], 0.115 nM; with HCV genotype 1a, 0.00643 nM; in data set [4] it was 0.158 nM. Further, the CC50 in data set [5] worked out at 5890 nM.

Consider `COC(=O)N[C@H](C(=O)N1[C@@H](C)CC[C@H]1c1nc(-c2ccc(-c3ccc(-c4c[nH]c([C@@H]5CC[C@H](C)N5C(=O)[C@@H](NC(=O)OC)C5C[C@@H](C)O[C@H](C)C5)n4)c(C)c3)cc2)c[nH]1)C1C[C@@H](C)O[C@H](C)C1` (stereo partly shown) [Example-3], for which the AUC in data set [1] was 4.49 µM·h. The bioavailability in data set [1] turned out to be 17%. Moreover, the EC50 in data set [2] amounted to 0.00641 nM; in data set [3], 0.191 nM; with HCV genotype 1a, 0.0052 nM; in data set [4], 1.08 nM. In addition, the CC50 in data set [5] was found to be 6150 nM.

In the case of `COC(=O)N[C@H](C(=O)N1[C@@H](C)CC[C@H]1c1nc(-c2ccc(-c3ccc(-c4c[nH]c([C@@H]5CC[C@H](C)N5C(=O)[C@@H](NC(=O)OC)C5C[C@@H](C)O[C@H](C)C5)n4)c(F)c3)cc2)c[nH]1)C1C[C@@H](C)O[C@H](C)C1` (stereo partly shown) [Example-4], in data set [1], the AUC was found to be 1.73 µM·h. For the same molecule, the bioavailability in data set [1] stood at 16%. The EC50 in data set [2] was determined as 0.00415 nM; in data set [3] it was 0.436 nM; with HCV genotype 1a, 0.00595 nM; in data set [4], 0.402 nM. Also, in data set [5], half-maximal cytotoxicity (CC50) was put at 7750 nM.

`COC(=O)N[C@H](C(=O)N1[C@H](c2nc(-c3ccc(-c4ccc(-c5c[nH]c([C@@H]6C[C@@]7(C)C[C@H]7N6C(=O)[C@@H](NC(=O)OC)C6C[C@@H](C)O[C@H](C)C6)n5)cc4)cc3)c[nH]2)C[C@@]2(C)C[C@@H]12)C1C[C@@H](C)O[C@H](C)C1` (stereo partly shown) [Example-5]: in data set [1], the area under the curve (AUC) is 0.539 µM·h. For the same molecule, the bioavailability in data set [1] was 6.3%. Further, the EC50 amounted to 0.00685 nM in data set [2], 0.00985 nM in data set [3], 0.00372 nM in the data set on HCV genotype 1a and 0.0607 nM in data set [4]. In data set [5], this molecule registered a CC50 of 5340 nM.

On to `COC(=O)N[C@H](C(=O)N1CCC[C@H]1c1nc(-c2ccc(-c3ccc(-c4c[nH]c([C@@H]5CCCN5C(=O)[C@@H](NC(=O)OC)C5C[C@@H](C)O[C@H](C)C5)n4)cc3)cc2)c[nH]1)C1C[C@@H](C)O[C@H](C)C1` (stereo partly shown) [Example-6], for which the exposure (AUC) in data set [1] turned out to be 1.36 µM·h. Further, in data set [1], the bioavailability is 5%. The EC50 in data set [2] was 0.0367 nM; in data set [3], 0.659 nM; with HCV genotype 1a, 0.0162 nM; in data set [4] it was 0.383 nM. Moreover, half-maximal cytotoxicity in data set [5] (CC50) was put at 15400 nM.
